In article PMC11120720, “Linking Variability in Phytochemical Composition with Safety Profile of Thymus carnosus Boiss. Extracts: Effect of Major Compounds and Evaluation of Markers of Oxidative Stress and Cell Death” (International Journal of Molecular Sciences, 2024):
Read-outs that look alike come from different tables or passages of the source.

How the values were obtained:
HepG2 cells [1] = assay: Cell cycle arrest (PI, flow cytometry), HepG2; format: cell-based, human; conditions: compound 50 µM, 24 h
Experimental: (§1) The cells were then equally divided for each assay.
(§2) Cell cycle arrest assessment was performed as described in [1]. Cells were processed as described above until cell detachment and centrifuged, after which the second washing step was performed with ice-cold PBS (0 °C). After centrifugation, the supernatant was discarded, and cells were fixed with 500 µL of ethanol:PBS solution (70:30, % v/v, previously cooled at −20 °C) for at least 4 h at −20 °C. After fixation, two washing cycles were performed: the first with ice-cold PBS (0 °C) and the second with room-temperature PBS, followed by the addition of 200 µL of a PBS solution containing PI (50 µg/mL), RNAse A (50 µg/mL), and Triton X-100 (0.1%). Cells were incubated for 30 min at 37 °C, and then cells were washed once with PBS to remove the staining solution. After resuspension in PBS, the data were acquired.

[2] = Alamar Blue cell viability assay, HepG2; format: cell-based, human; conditions: human
Experimental: (§3) The safety profile of T. carnosus AD and HE extracts was evaluated in Caco-2 and HepG2 cells using an Alamar Blue® (Invitrogen; Alfagene, Lisboa, Portugal) assay. An initial screening was performed for all extracts at concentrations ranging between 100 and 1000 µg/mL. Due to the higher toxicity of the HE extracts, which was previously described for various extracts of Thymus species using the same extraction methods (e.g., T. mastichina and Thymus zygis), a different set of concentrations was used for the HE extracts (between 100 and 300 µg/mL for Caco-2 cells and 50 and 150 µg/mL for HepG2 cells). Figure 1 presents the data related to the cell viability assays in Caco-2 (panels A–E) and HepG2 cells (panels F–J) exposed to T. carnosus extracts, as indicated.
(§4) The safety profile of T. carnosus extracts was assessed in Caco-2 and HepG2 cells. Caco-2 (human colon adenocarcinoma cell line) were obtained from CLS (Cell Lines Service, Eppelheim, Germany), and HepG2 (human hepatocellular carcinoma cell line) were obtained from ATCC (American Type Culture Collection, Manassas, VA, USA).
(§5) Cell culture maintenance, handling, subculturing, and seeding were performed as described by Silva et al., 2020 [5], and cell viability was assessed using an Alamar Blue® assay, as described by Andreani et al., 2014 [64]. Concentrations ranged between 100 and 1000 µg/mL for AD extracts in both cell lines and 100 to 300 µg/mL or 50 to 150 µg/mL for HE extracts in Caco-2 and HepG2 cells, respectively. The effect of individual compounds on cell viability was assessed for concentrations ranging from 50 to 300 µM. All test solutions were prepared by diluting the samples in FBS-free culture media from the stock solutions described in Section 3.2, just prior to being used.
(§6) The results are presented as mean ± SD of at least three independent assays. The calculation of IC50 values was performed as described by Silva et al., 2020 [5]. Data analysis, graphical design, and statistical analysis were performed using Microsoft Office Excel (Professional Plus 2019; Microsoft Corporation, Washington, DC, USA) and GraphPad Prism (Version 8; GraphPad Software Inc., San Diego, CA, USA). Flow cytometry data analysis was performed using BD Accuri™ C6 Software, version 1.0.264.21 (Becton Dickinson, San Diego, CA, USA).

HepG2 cells [3] = assay: Alamar Blue cell viability assay, HepG2; format: cell-based, human; conditions: Homo sapiens, HepG2
Experimental: as §3, §4, §5, §6

[4] = test system: colorectal cancer cell line CT26; parameters: method as in PMID 29459827; conditions: cited from earlier work
Caco-2 cells [5] = assay: Annexin V-FITC/PI apoptosis/necrosis, Caco-2; format: cell-based; conditions: compound 50 µM, 24 h
Experimental: as §1
(§7) For the assessment of apoptotic/necrotic cell death, an Annexin V-FITC (Thermo Fisher Scientific, Waltham, MA, USA) and propidium iodide (PI; Merck, Darmstadt, Germany) double-staining assay was used to evaluate the apoptotic/necrotic cell death induced by T. carnosus extracts and by individual phytochemicals, as described previously. Briefly, after detachment and washing, the supernatant was discarded, and 200 µL of Annexin V-FITC (1:200 dilution in Annexin-binding buffer [10 mM HEPES sodium salt, 150 mM NaCl, 5 mM KCl, 5 mM MgCl2, and 1.8 mM CaCl2; pH = 7.4]) was added. Cells were incubated for 20 min (room temperature, in the dark). After incubation, 5 µL of propidium iodide (PI; 50 µg/mL) was added, the cells were incubated for 5 min on ice (in the dark), and the data were acquired.

HepG2 cells [6] = conditions: cited from earlier work
HepG2 cells [7] = assay: Mitochondrial membrane potential (JC-1, flow cytometry), HepG2; format: cell-based, human; conditions: compound 50 µM, 24 h
Experimental: Flow cytometry was used to analyze the effect of T. carnosus extracts on intracellular ROS, modulation of mitochondrial membrane potential (MMP), cell cycle arrest, and apoptotic/necrotic cell death induction.
Both one- and two-color assays were performed using a BD Accuri™ C6 cytometer (Becton Dickinson, Franklin Lakes, NJ, USA), and 10,000 gated events were collected from each sample [1]. For flow cytometry assays, cells were handled as described previously but seeded at a density 5 × 10^4 cells/mL (750 μL/well) in 12-well plates. Caco-2 and HepG2 cells were incubated for 24 h with the extracts (100 µg/mL) or individual phytochemicals (50 µM) diluted in FBS-free culture media h. After incubation, test solutions were removed; the cells were washed with PBS and detached from the plates using trypsin-EDTA. Once transferred to centrifuge tubes, the cells were centrifuged (bench micro-centrifuge; 3000 rpm; 3 min), the supernatant was discarded, and a new wash cycle was performed. The cells were then equally divided for each assay. A negative control was used in all assays consisting of nonexposed cells incubated only with culture media.
Mitochondrial membrane potential (MMP) was evaluated using 5,5″,6,6″-tetrachloro-1,1″,3,3″-tetraethylbenzimidazolylcarbocyanineiodide (JC-1). Cells were processed as described for DCFDA but incubated with 200 µL of JC-1 (2 µM, in FBS-free DMEM) for 20 min (37 °C, in the dark).

Caco-2 cells [8] = assay: Alamar Blue cell viability assay, Caco-2; format: cell-based, human; conditions: Homo sapiens, Caco-2
Experimental: as §3, §4, §5, §6

[9] = Alamar Blue cell viability assay, Caco-2; format: cell-based, human; conditions: human, Caco-2
Experimental: as §3, §4, §5, §6

HepG2 cells [10] = assay: Intracellular ROS (DCFDA, flow cytometry), HepG2; format: cell-based, human; conditions: compound 50 µM, 24 h
Experimental: as §1
(§8) Intracellular ROS level assessment was performed as described by Silva et al., 2022 [65], using dichlorodihydrofluorescein diacetate (DCFDA). Cells obtained in the previous step were centrifuged, the supernatant discarded, and 200 µL of DCFDA (10 µM in FBS-free DMEM) was added. Cells were incubated for 45 min (37 °C, in the dark), washed to remove excess probe, and resuspended in PBS for data acquisition.

Caco-2 cells [11] = conditions: Caco-2; cited from earlier work
Caco-2 cells [12] = assay: Intracellular ROS (DCFDA, flow cytometry), Caco-2; format: cell-based; conditions: compound 50 µM, 24 h
Experimental: as §1, §8

HepG2 cells [13] = assay: Annexin V-FITC/PI apoptosis/necrosis, HepG2; format: cell-based, human; conditions: compound 50 µM, 24 h
Experimental: as §1, §7

Caco-2 cells [14] = assay: Cell cycle arrest (PI, flow cytometry), Caco-2; format: cell-based; conditions: compound 50 µM, 24 h
Experimental: as §1, §2

[15] = test system: HCT-116 human colorectal carcinoma cells; conditions: cited from earlier work
[16] = parameters: method as in PMID 31344882, PMID 26042707; conditions: cited from earlier work
[17] = test system: human glioblastoma cells (DBTRG-05MG); parameters: method as in PMID 25131308; conditions: cited from earlier work
[18] = test system: hepatocarcinoma cells (HuH7); parameters: method as in PMID 20415421; conditions: 20-80 µM; cited from earlier work
[19] = test system: colorectal cancer (HCT15) cells; parameters: method as in PMID 12046077; conditions: cited from earlier work
[20] = 24 h exposure, read-out: IC50 (µM) - HepG2 cells: 24 h
[21] = 48 h exposure, read-out: IC50 (µM) - HepG2 cells: 48 h
[22] = 24 h exposure, read-out: IC50 (µM) - Caco-2 cells: 24 h
[23] = 48 h exposure, read-out: IC50 (µM) - Caco-2 cells: 48 h

O=C(/C=C/c1ccc(O)c(O)c1)O[C@H](Cc1ccc(O)c(O)c1)C(=O)O [Rosmarinic acid]
cell cycle effect, HepG2 (HepG2 cells [1]): induced cell cycle arrest in both cell lines but in different phases
viability at 24 h, 300 µM [2]: 65.2%
IC50 (HepG2 cells [3]; [20]): > 300 µM
IC50 (HepG2 cells [3]; [21]): > 300 µM
cell cycle effect, CT26 [4]: cell cycle arrest in G0/G1
cell death induction, Caco-2 (Caco-2 cells [5]): significant increase in both late apoptosis and necrosis
concentrations giving significant reduction in HepG2 cell viability (HepG2 cells [6]): ≥ 34.69 µM
IC50 (HepG2 cells [6]; read-out: IC50 (48 h), HepG2 cells, 48 h): 91 µM
MMP modulation, HepG2 (HepG2 cells [7]): slight decrease in MMP
IC50 (Caco-2 cells [8]; [22]): > 300 µM
IC50 (Caco-2 cells [8]; [23]): > 300 µM
viability at 24 h, 300 µM [9]: 87.8%
viability at 48 h, 300 µM [9]: 72.6%
change in intracellular ROS, HepG2 (HepG2 cells [10]): significant (p < 0.05) increase in intracellular HepG2 ROS levels
concentrations that did not reduce Caco-2 cell viability (Caco-2 cells [11]): ≤ 90 µM
change in intracellular ROS, Caco-2 (Caco-2 cells [12]): neither RA nor eriodictyol induced ROS increases
cell death induction, HepG2 (HepG2 cells [13]): necrosis in HepG2 cells
cell cycle effect, Caco-2 (Caco-2 cells [14]): cell cycle arrest in G0/G1
cell cycle effect, HCT-116 [15]: cell cycle arrest in G0/G1

C[C@H]1[C@H](C)CC[C@]2(C(=O)O)CC[C@]3(C)C(=CC[C@@H]4[C@@]5(C)CC[C@H](O)C(C)(C)[C@@H]5CC[C@]43C)[C@H]12 [Ursolic acid, ursolic acid]
cell cycle effect, HepG2 (HepG2 cells [1]): no UA-induced cytostatic effect
IC50 (HepG2 cells [3]; [20]): 79.6 ± 2.45 µM
IC50 (HepG2 cells [3]; [21]): 75.2 ± 1.97 µM
percentage of cells in late apoptosis, Caco-2 (Caco-2 cells [5]): ~ 70%
percentage of cells in necrosis, Caco-2 (Caco-2 cells [5]): ~ 12%
lipophilicity [16]: high lipophilicity
water solubility [16]: poor water solubility
IC50 (HepG2 cells [6]; read-out: IC50, HepG2 cells, 72 h): 41 µM
cell death type, DBTRG-05MG ([17]; 17.50 µM): mitochondria-dependent necrosis
MMP modulation, DBTRG-05MG [17]: transient hyperpolarization of the mitochondria membrane
MMP modulation, HepG2 (HepG2 cells [7]): slight increase
MMP modulation, HuH7 [18]: reduce MMP
IC50 (Caco-2 cells [8]; [22]): 59 ± 1.35 µM
IC50 (Caco-2 cells [8]; [23]): 44.3 ± 2.31 µM
change in intracellular ROS, HepG2 (HepG2 cells [10]): significant (p < 0.05) increase in intracellular HepG2 ROS levels
change in intracellular ROS, Caco-2 (Caco-2 cells [12]): increase in ROS
cell cycle effect, HCT15 [19]: cytostatic effect in the G0/G1 phase
cell death induction, HepG2 (HepG2 cells [13]): only slightly increased (p < 0.05) the percentage of necrotic cells
cell cycle effect, Caco-2 (Caco-2 cells [14]; listed as UA): cell cycle arrest in G0/G1
